Measured values from patent US20200222418A1, “USE OF PHENOTHIAZINE DERIVATIVE IN THE TREATMENT OF INFECTION CAUSED BY BACTERIA CARRYING TYPE IV PILI” (priority 2017, published 2020).

Experiments:
[1] = system: HBMECs infected with meningococci; assay: PECAM-1 recruitment at bacterial adhesion sites in infected HBMEC; assay type: cell-based, human; conditions: 5 μM for 2 h during infection
Experimental: (A) Monolayers of HBMECs were non-infected or infected for 2 h with meningococci and the effect on the localisation of the endothelial cell junction proteins PECAM-1 and […]-catenin was analysed by immunofluorescence analysis. Arrows point at PECAM-1 molecules recruited at bacterial adhesion sites (B) HBMECs were infected for 2 h with meningococci in the presence or in the absence of 5 μM Trifluoperazine and the effect on junctional PECAM-1 and on the endothelial cell cytoskeleton remodelling (Ezrin, Actin) was analysed by immunofluorescence analysis. (C) Quantification of Actin and PECAM-1 recruitment at sites of bacterial adhesion was performed using Image J software.
When indicated, HBMECs were grown on Thermanox coverslips coated with gelatin 2% for 2 days to reach confluency. Cells were then infected as above described in the presence or in the absence of 5 μM Trifluoperazine for 2 h. Cells were washed and fixed in 4% paraformaldehyde and immunolabelling was performed with a polyclonal antisera raised anti-Nm2C4.3 strain, anti-human PECAM-1 mouse monoclonal, clone HEC7 (ABCAM ab119339) or rabbit polyclonal 177 raised against PECAM-1, obtained from WA Muller (Northwestern University, Chicago, Ill., US), anti-0 catenin (05-482, UBI), polyclonal antisera raised against Ezrin, Alexa Fluor 633 Phalloidin. […] Quantifications were done using ImageJ software (NIH).

[2] = system: N. meningitidis 2C4.3 wild type strain type IV pili; assay: Surface expression of type IV pili by transmission electron microscopy, wild type; assay type: cell-based, Neisseria meningitidis; conditions: 50 μM Trifluoperazine for 30 minutes, wild type 2C4.3
Experimental: N. meningitidis 2C4.3 wild type strain and the isogenic derivative mutant PilT ([…]PiIT) were grown in liquid culture […] electron microscopy. Arrows point at bundles of type IV pili expressed at the bacterial surface.
N. meninigitidis 2C4.3 strain and the isogenic derivative mutant PilT, where the pilT gene was interrupted by an erythromycin-resistance cassette (Pujol et al., 1999), were grown in suspension in DMEM medium supplemented with 10% heat-inactivated fetal calf serum. PilT belongs to a highly conserved protein family homologous to AAA-type motor proteins and is proposed to cause the retraction of type IV pili by disassembling the pilin subunits at the base of the fiber (Morand et al., 2004). […] The effect on bacterial aggregates were visualized over time using a phase-contrast microscope or the bacterial suspensions were fixed in 4% Paraformaldehyde for 10 min, centrifuged at 1000 rpm for 5 minutes and the bacterial pellets washed in PBS. After negative staining with 1% phosphotungstic acid, bacteria were analysed by transmission electron microscopy, using a JEOL 1011 microscope.

[3] = system: meningococcal colonization of the human dermal vasculature; assay: In vivo meningococcal infection of mice engrafted with human skin
[4] = system: N. meningitidis 2C4.3 isogenic derivative mutant PilT; assay: Aggregation of PilT mutant in suspension (phase-contrast video microscopy); assay type: cell-based, Neisseria meningitidis; conditions: 50 μM
Experimental: N. meningitidis 2C4.3 wild type strain and the isogenic derivative mutant PilT ([…]PiIT) were grown in liquid culture at 10^7 CFU/ml for 2 h to form bacterial aggregates and then treated with 50 μM Trifluoperazine. Time lapse phase-contrast video microscopy was performed to visualize the effect on bacterial aggregates over time. Images were taken at the indicated time points of the video.
N. meninigitidis 2C4.3 strain and the isogenic derivative mutant PilT, where the pilT gene was interrupted by an erythromycin-resistance cassette (Pujol et al., 1999), were grown in suspension in DMEM medium supplemented with 10% heat-inactivated fetal calf serum. PilT belongs to a highly conserved protein family homologous to AAA-type motor proteins and is proposed to cause the retraction of type IV pili by disassembling the pilin subunits at the base of the fiber (Morand et al., 2004). After 2 h of growth, Trifluoperazine (or control vehicle) was added at 50 μM for 20 min. The effect on bacterial aggregates were visualized over time using a phase-contrast microscope or the bacterial suspensions were fixed in 4% Paraformaldehyde for 10 min, centrifuged at 1000 rpm for 5 minutes and the bacterial pellets washed in PBS. After negative staining with 1% phosphotungstic acid, bacteria were analysed by transmission electron microscopy, using a JEOL 1011 microscope.

[5] = system: HDMECs infected with N. meningitidis Nm2C4.3; assay: Basement membrane (Gelatin-FITC matrix) degradation by infected endothelial cells; assay type: cell-based, human; conditions: 150 μg/ml Gentamicin, 24 h post-infection
Experimental: (A) Experimental procedure: HBMECs grown on a fluorescent matrix (Gelatin-Fitc) were colonized by N. meningitidis for 6 h. They were then treated with 150 μg/ml gentamicin for 1 h, then 15 min with Trifluoperazine (50 μM) (or solvent alone as control) and incubated for further 15 h in the presence of 150 μg/ml gentamicin. (B) Fluorescence microscopy was used to visualize cells stained with labelled phalloidin and the fluorescent matrix. The presence of dark zones corresponds to zones of matrix degradation. (C) Quantification of the percentage of matrix degradation, using Image J software.
Plastic coverslips (13 mm diameter) (Nalgen #174950) were washed in ethanol 70%, dried then coated with poly-L-lysine 1 mg/ml for 20 min at room temperature. After one wash in sterile PBS, 0.5% Glutaraldehyde was added for 15 min at room temperature. After three washes in PBS, Gelatin-FITC (0.2 mg/ml Invitrogen #G13187) was added for 10 minutes at room temperature in the dark. Coverslip were then washed with sterile PBS and treated with 5 mg/ml sodium borohydride for 3 min. After three washes in sterile PBS, 10^5 HDMECs (PromoCell #C-12210) were seeded per well in their PromoCell culture medium and incubated overnight at 37° C. 5% CO2. The day after, cells were infected with N. meningitidis Nm2C4.3, as above described. […] Quantifications were performed using ImageJ software (NIH).

Row | Compound | PECAM-1 recruitment at bacterial adhesion sites [1] | bacterial colonization [1] | type IV pili expressed on bacterial surface [2] | colonization of the human dermal vasculature [3] | incidence of vascular alteration [3] | signs of intravascular coagulation [3] | hallmark of vascular inflammation ([3]; alone or in combination with cefotaxime) | effect on aggregation of PilT mutant strain [4] | degradation of the basement membrane [5]
1 | CN1CCN(CCCN2c3ccccc3Sc3ccc(C(F)(F)F)cc32)CC1 [Trifluoperazine] | prevented PECAM-1 recruitment | did not affect bacterial colonization | no longer observed | prevents the massive colonization | reduces incidence of vascular alteration | reduces the signs of intravascular coagulation | drastically reduced | had no effect | –
2 | CN[C@@H]1[C@@H](O)C(O[C@@H]2[C@@H](O)[C@H](O[C@H]3O[C@H]([C@@H](C)NC)CC[C@H]3N)[C@@H](N)C[C@H]2N)OC[C@]1(C)O (stereo partly drawn) [Gentamicin, (3R,4R,5R)-2-{[(1S,2S,3R,4S,6R)-4,6-diamino-3-{[(2R,3R,6S)-3-amino-6-[(1R)-1-(methylamino)ethyl]oxan-2-yl]oxy}-2-hydroxycyclohexyl]oxy}-5-methyl-4-(methylamino)oxane-3,5-diol] | – | – | – | – | – | – | – | – | about 20%
